Measurements: the CheMixHub viscosity set
Values joined by “and” are separate entries in the source; they are usually repeats but may differ in a detail not shown here. Identical values can stand only once. ± gives the uncertainty stated by the source.

C=CC(C)O (stereo not drawn)
viscosity (308.15 K, 101.32 kPa): 1.294 ± 0.024 mPa·s
viscosity (313.15 K, 101.32 kPa): 1.144 ± 0.021 mPa·s
viscosity (318.15 K, 101.32 kPa): 1.015 ± 0.019 mPa·s
viscosity (323.15 K, 101.32 kPa): 0.9032 ± 0.017 mPa·s

CCCCCCN
viscosity (303.15 K, 101 kPa): 0.6979 ± 0.006 mPa·s and 0.729 ± 0.0081 mPa·s and 0.7123 ± 0.0068 mPa·s
viscosity (303.15 K, 101.33 kPa): 0.7123 ± 0.0068 mPa·s
viscosity (308.15 K, 101 kPa): 0.6 ± 0.062 mPa·s and 0.6 ± 0.0079 mPa·s
viscosity (313.15 K, 101 kPa): 0.6134 ± 0.0063 mPa·s
viscosity (313.15 K, 101.33 kPa): 0.6134 ± 0.0063 mPa·s

CCCCCCn1cc[n+](C)c1.F[B-](F)(F)F
viscosity (298.15 K, 101 kPa): 171.8 ± 8.1 mPa·s and 211.2 ± 11 mPa·s
viscosity (299.15 K, 101 kPa): 198.1 ± 9.4 mPa·s and 197.3 ± 9.4 mPa·s
viscosity (301.15 K, 101 kPa): 177.2 ± 7.8 mPa·s and 175.8 ± 7.7 mPa·s
viscosity (302.15 K, 101 kPa): 167.2 ± 7 mPa·s and 165.9 ± 7 mPa·s
viscosity (304.15 K, 101 kPa): 148.4 ± 5.8 mPa·s and 148.6 ± 5.7 mPa·s
viscosity (305.15 K, 101 kPa): 141.2 ± 5.1 mPa·s and 140.7 ± 5.1 mPa·s
viscosity (307.15 K, 101 kPa): 127.5 ± 4.2 mPa·s and 126.7 ± 4.2 mPa·s
viscosity (308.15 K, 101 kPa): 145.4 ± 44 mPa·s and 120.7 ± 3.8 mPa·s and 120 ± 3.8 mPa·s
viscosity (313.15 K, 101 kPa): 113.6 ± 34 mPa·s and 55 ± 3.4 mPa·s
viscosity (318.15 K, 101 kPa): 90.3 ± 27 mPa·s
viscosity (323.15 K, 101 kPa): 72.8 ± 22 mPa·s and 36 ± 2.2 mPa·s

CCCO
viscosity (293.15 K, 101.33 kPa): 2.185 ± 0.046 mPa·s and 2.327 ± 0.023 mPa·s
viscosity (295.15 K, 101 kPa): 2.12 ± 0.056 mPa·s
viscosity (298.15 K, 100 kPa): 1.91 ± 0.06 mPa·s
viscosity (298.15 K, 101.31 kPa): 2.004 ± 0.052 mPa·s
viscosity (298.15 K, 101.33 kPa): 1.743 ± 0.041 mPa·s
viscosity (303 K, 101 kPa): 1.634 mPa·s
viscosity (303 K, 101.33 kPa): 1.769 ± 0.016 mPa·s
viscosity (303.15 K, 101 kPa): 1.777 ± 0.018 mPa·s and 1.591 ± 0.02 mPa·s and 1.768 ± 0.034 mPa·s
viscosity (303.15 K, 101.3 kPa): 1.6 ± 0.1 mPa·s and 1.784 ± 0.021 mPa·s
viscosity (303.16 K, 101 kPa): 1.92 ± 0.23 mPa·s
viscosity (308 K, 101.3 kPa): 1.461 ± 0.15 mPa·s
viscosity (308.15 K, 101.3 kPa): 1.488 ± 0.037 mPa·s and 1.4 ± 0.1 mPa·s
viscosity (308.15 K, 101.33 kPa): 1.486 ± 0.009 mPa·s and 1.466 ± 0.012 mPa·s and 1.376 ± 0.033 mPa·s
viscosity (311 K, 101.3 kPa): 1.43 ± 0.023 mPa·s
viscosity (313 K, 101.3 kPa): 1.317 ± 0.13 mPa·s
viscosity (313.15 K, 101.3 kPa): 1.3 ± 0.1 mPa·s
viscosity (313.15 K, 101.33 kPa): 1.319 ± 0.008 mPa·s
viscosity (318.15 K, 101.3 kPa): 1.1 ± 0.1 mPa·s
viscosity (319 K, 101.3 kPa): 1.197 ± 0.02 mPa·s
viscosity (323 K, 101 kPa): 0.9714 ± 0.014 mPa·s
viscosity (323 K, 101.3 kPa): 1.165 ± 0.12 mPa·s
viscosity (323.15 K, 101 kPa): 1.15 ± 0.024 mPa·s
viscosity (323.15 K, 101.3 kPa): 0.92 ± 0.05 mPa·s
viscosity (323.15 K, 101.33 kPa): 1.136 ± 0.069 mPa·s and 1.166 ± 0.012 mPa·s

CNc1ccccc1
viscosity (298 K, 101 kPa): 1.963 ± 0.05 mPa·s
viscosity (298 K, 101.3 kPa): 1.963 ± 0.052 mPa·s
viscosity (298.15 K, 101 kPa): 2.02 ± 0.03 mPa·s
viscosity (303 K, 101.3 kPa): 1.717 ± 0.046 mPa·s
viscosity (303 K, 101.33 kPa): 1.751 ± 0.045 mPa·s
viscosity (303.15 K, 101 kPa): 1.55 ± 0.04 mPa·s
viscosity (308 K, 101.3 kPa): 1.538 ± 0.041 mPa·s
viscosity (308.15 K, 101.33 kPa): 1.515 ± 0.051 mPa·s
viscosity (313 K, 101.3 kPa): 1.386 ± 0.037 mPa·s
viscosity (318 K, 101.3 kPa): 1.251 ± 0.034 mPa·s
viscosity (323.15 K, 101 kPa): 1.401 ± 0.12 mPa·s

COCCOCCOC
viscosity (298.15 K, 101 kPa): 0.983 ± 0.013 mPa·s and 0.983 ± 0.007 mPa·s and 0.996 ± 0.032 mPa·s
viscosity (298.15 K, 101.32 kPa): 0.989 ± 0.006 mPa·s
viscosity (301.15 K, 100 kPa): 1.2 ± 0.1 mPa·s and 1.3 ± 0.1 mPa·s and 1.4 ± 0.1 mPa·s
viscosity (303.15 K, 101 kPa): 0.923 ± 0.012 mPa·s
viscosity (303.15 K, 101.33 kPa): 0.904 ± 0.012 mPa·s
viscosity (308.15 K, 101 kPa): 0.839 ± 0.011 mPa·s and 0.839 ± 0.006 mPa·s and 0.868 ± 0.029 mPa·s
viscosity (318.15 K, 101 kPa): 0.721 ± 0.01 mPa·s and 0.721 ± 0.005 mPa·s
viscosity (318.15 K, 101.33 kPa): 0.728 ± 0.01 mPa·s (4×) and 0.725 ± 0.019 mPa·s and 0.728 ± 0.019 mPa·s

ClC(Cl)C(Cl)Cl
viscosity (298.15 K, 101 kPa): 1.632 ± 0.034 mPa·s
viscosity (298.15 K, 101.33 kPa): 1.581 ± 0.016 mPa·s
viscosity (303 K, 101.33 kPa): 1.381 ± 0.036 mPa·s
viscosity (303.15 K, 101 kPa): 1.455 ± 0.011 mPa·s and 1.521 ± 0.012 mPa·s
viscosity (303.15 K, 101.3 kPa): 1.484 ± 0.01 mPa·s
viscosity (303.15 K, 101.32 kPa): 1.45 ± 0.14 mPa·s and 1.455 ± 0.016 mPa·s
viscosity (303.15 K, 101.33 kPa): 1.455 ± 0.011 mPa·s
viscosity (313.15 K, 101.32 kPa): 1.367 ± 0.14 mPa·s
viscosity (323.15 K, 101.32 kPa): 1.18 ± 0.12 mPa·s
viscosity (323.15 K, 101.33 kPa): 1.075 ± 0.011 mPa·s

N#CCCO
viscosity (298 K, 101 kPa): 3.571 ± 0.031 mPa·s

OC(C(F)(F)F)C(F)(F)F
viscosity (298.15 K, 101 kPa): 1.579 ± 0.023 mPa·s and 1.619 ± 0.013 mPa·s
viscosity (303.15 K, 101 kPa): 1.361 ± 0.011 mPa·s
viscosity (313.15 K, 101 kPa): 0.989 ± 0.014 mPa·s and 1 ± 0.008 mPa·s
viscosity (323.15 K, 101 kPa): 0.765 ± 0.011 mPa·s and 0.788 ± 0.007 mPa·s
